These are literature values, as cited in patent publication US7361766B2, “Bicyclic heterocycles as cannabinoid receptor modulators” (Bristol-Myers Squibb Company, priority 2005, dated 2008).

Read-outs that look alike come from different tables or passages of the source.

One data set concerns CB-1. As to conditions: multiple species including humans.
For data set [1] the following is noted: chronic administration for two weeks.
For data set [2] the following is noted: human subjects, 16 week trial period.

Take `CCCCCc1cc(O)c2c(c1)OC(C)(C)[C@@H]1CCC(C)=C[C@@H]21` [Delta-9 THC, Delta-9-tetrahydrocannabinol]: in the data set with CB-1, the body weight entry is “weight gain” and the food intake result is “increased food intake”.

As to `Cc1c(C(=O)NN2CCCCC2)nn(-c2ccc(Cl)cc2Cl)c1-c1ccc(I)cc1` [AM-251], the body weight entry in data set [1] is recorded as “substantial body weight reduction”.

As to `CCCCC/C=C\C/C=C\C/C=C\C/C=C\CCCC(=O)NCCO` [anandamide], in the data set with CB-1, the body weight result is listed as “weight gain” and the food intake result is recorded as “increased food intake”. With `Cc1c(C(=O)NN2CCCCC2)nn(-c2ccc(Cl)cc2Cl)c1-c1ccc(Cl)cc1` [SR-141716], in data set [2], the body weight entry is recorded as “dose-dependently reduced body weight”.
